Experimental data published in patent US11382848B2, “Compounds reducing malodour perception and the use thereof” (CHEMCOM S.A., priority 2017, dated 2022).
pIC50: −log10 of the molar value.

What follows are compounds tested against T1, human olfactory receptor OR7D4 (Homo sapiens, UniProt Q8NG98) (assay: OR7D4 luciferase gene reporter assay (antagonism of agonist-induced activation)). Details: dose-response, luciferase assay; half decrease of the luciferase production obtained without antagonist; androstenone at 31.6 micromolar.
T1 construct: transfected with a plasmid containing CRE-luciferase and a plasmid containing OR7D4; expressed in transfected cells; host or cells: HEK293T stably expressing olfactory chaperone proteins of the RTP family
T1 sequence (Q8NG98 1-312): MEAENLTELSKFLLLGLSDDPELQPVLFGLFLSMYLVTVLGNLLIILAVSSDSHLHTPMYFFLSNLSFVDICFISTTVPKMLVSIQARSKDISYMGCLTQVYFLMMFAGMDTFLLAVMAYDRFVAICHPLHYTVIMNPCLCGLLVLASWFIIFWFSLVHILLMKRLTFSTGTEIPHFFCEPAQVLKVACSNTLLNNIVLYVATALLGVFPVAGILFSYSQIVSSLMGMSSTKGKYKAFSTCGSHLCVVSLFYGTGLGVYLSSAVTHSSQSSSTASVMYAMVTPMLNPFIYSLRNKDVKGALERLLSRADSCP
Type: cell-based
Protocol: Cells were maintained in minimal essential medium (EMEM, Lonza) containing 10% fetal bovine serum (M10). HEK293T stably expressing olfactory chaperone proteins from the RTP family as described in WO 2006/002161 (introduced here as a reference) were generated by transfecting HEK293T cells with expression vector containing the chaperone gene sequences and a resistance gene to puromycin, using Lipofectamine 2000. A recombinant cell population was selected by adding 10 μg/ml of puromycin into the culture medium. Monoclonal populations were further obtained by limit dilution procedure. Briefly, a cell suspension was diluted to contain 1 cell per ml and this dilution was dispatched in poly-D-lysine-coated 96 well plates (200 μl of dilution per well). After 5 days of culture, the presence and number of cell colonies per well was checked under a phase contrast microscope. After 5 additional days of culture, wells containing a single colony were harvested and each collected population was amplified independently.
The 5-alpha-androst-16-ene-3-one, used as an agonist of the human olfactory receptor OR7D4 and the tested molecules were diluted at a concentration of 1 mole/litre (M) into dimethyl sulfoxide (DMSO) to generate stock solutions.
For concentration-response analysis, serial dilutions of the tested molecules were prepared from stock solutions in EMEM plated into 96-well plates.
Briefly, cells were plated on poly-D-lysine-coated 96-well plates (BD Bioscience, Erembodegem-Dorp, Belgium) and transfected with a plasmid containing CRE-luciferase and a plasmid containing OR7D4. Sixteen hours after transfection, the culture medium was replaced by serum-free EMEM containing the tested ligands at a determined concentration. After four hours of incubation at 37° C. degree, cells were lysed and processed for luminescence measurement according to the manufacturer's protocols. Luminescence emission was recorded on a Spectra Max M5 reader (Molecular Devices, Sunnyvale, Calif.). Results were expressed as percentage of the response induced by 10 μM of the adenylate cyclase activator Forskolin.
The ability of the compounds of the invention to inhibit the activity of androstenone on OR7D4 receptor was assessed by the luciferase assay described above.
To determine whether a molecule antagonizes OR7D4, this compound was introduced in the incubation medium of the Luciferase assay described above at a concentration of either 316 μM, 100 μM or 31.6 μM, along with the known activator of the receptor 5α-androst-16-en-3-one at a concentration of 31.6 μM. Molecules were considered as “hits” i.e., as having an antagonist effect on the receptor, if they induced a decrease of at least 50% of the luciferase production elicited upon activation of OR7D4 by 5α-androst-16-en-3-one.
Putative antagonist molecule libraries containing compound 1 and other types of molecules were used to identify antagonist of the receptor OR7D4. The screening campaign was performed on the OR7D4 with a series of 112 putative antagonist molecules. In this screening campaign, compound 1 was identified as a hit.
The compound 1 was further confirmed as antagonist of OR7D4 by performing dose-response analysis using the luciferase assay. Different concentrations of compound 1, ranging from 31.6 nM to 1 mM were tested on HEK293 cell expressing OR7D4 and stimulated with 31.6 μM of 5α-androst-16-en-3-one.
The antagonistic property of compound 1 on OR7D4 was further confirmed by measuring the response of the OR7D4 to 5α-androsta-4,16-dien-3-one in presence of compound 1, using the luciferase assay as describe hereinabove. The observed inhibition was in the same range as the one observed when stimulating the receptor with 5α-androst-16-en-3-one.
To further explore the antagonism on OR7D4, a series of compounds structurally related to compound 1 were synthesized and assessed as antagonists of OR7D4 by dose-response analysis using the luciferase assay. […]

Compound	pIC50
CCOC(=O)/C(C)=C/C=C/c1cccc(OC)c1 [Compound 2, ethyl (2E,4E)-5-(3-methoxyphenyl)-2-methylpenta-2,4-dienoate]	4.60
CCCc1ccccc1/C=C/C=C/C(=O)OCC [Compound 3, ethyl (2E,4E)-5-(2-propylphenyl)penta-2,4-dienoate]	4.30
CCCCCc1ccccc1/C=C/C=C/C(=O)OCC [Compound 4, ethyl (2E,4E)-5-(2-pentylphenyl)penta-2,4-dienoate]	4.80
CCCCCCC(/C=C/C(=O)OCC)=C\c1ccc(F)cc1 [Compound 5, ethyl (E)-4-((E)-4-fluorobenzylidene)dec-2-enoate]	4.85
CCOC(=O)/C(C)=C/C(=C/c1ccccc1OCC)CC [Compound 6, ethyl (E)-4-((E)-2-ethoxybenzylidene)-2-methylhex-2-enoate]	4.60
CCCCCCC(=C\c1ccc(C#N)cc1)/C=C(\C)C(=O)OCC [Compound 7, ethyl (E)-4-((E)-4-cyanobenzylidene)-2-methyldec-2-enoate]	4.89
C=CCCCCC(=C\c1ccccc1)/C=C(\C)C(=O)OCC [Compound 8]	6.00
CCCCCCC(/C=C/C(=O)OC)=C\c1ccccc1 [Compound 10]	5.70
CCOC(=O)/C(C)=C/C(=C/c1ccccc1)C(C)CC(C)(C)C (stereo not drawn) [Compound 11]	5.10
CCOC(=O)/C(C)=C/C(=C/c1ccccc1)CC1CCCC1 [Compound 12]	5.10
CCCCCCC(/C=C/C(=O)OCC)=C\c1ccccc1 [Compound 13]	5.15
CCCCCC(/C=C/C(=O)OCC)=C\c1ccccc1 [Compound 14]	4.85
CCCC(/C=C/C(=O)OCC)=C\c1ccccc1 [Compound 15]	4.07
CCCCCCC(/C=C/C#N)=C\c1ccccc1 [Compound 16, 4-benzylidenedec-2-enenitrile]	5.10
CCCCCCC(/C=C(\C)C#N)=C\c1ccccc1 [Compound 17]	4.92
CCCCCCC(=C\c1ccc(C#N)cc1)/C=C(\C)C(=O)O [Compound 19, (E)-4-((E)-4-cyanobenzylidene)-2-methyldec-2-enoic Acid]	4.35
CCOc1ccccc1/C=C(/C=C(\C)C(=O)O)CC [Compound 20]	4.49
CCCCCCC(=C\c1ccccc1)/C=C(\C)C(=O)O [Compound 21, 4-benzylidene-2-methyldec-2-enoic Acid]	4.21
CCCCCCC(/C=C/C(=O)O)=C\c1ccccc1 [Compound 22]	4.12
CCCCCCC(=C\c1ccccc1)/C=C(\C)C(N)=O [Compound 23, (E)-4-((E)-benzylidene)-2-methyldec-2-enamide]	6.00
CCCCCCC(=C\c1ccccc1)/C=C(\C)C(=O)NC [Compound 24, (E)-4-((E)-benzylidene)-N,2-dimethyldec-2-enamide]	5.70

Compound	pIC50
CCc1cccc(/C=C(C)/C=C/C(=O)N(C)C)c1 [Compound 25, (2E,4E)-5-(3-ethylphenyl)-N,N,4-trimethylpenta-2,4-dienamide]	3.90
CCCCCCC(/C=C/C(N)=O)=C\c1ccccc1 [Compound 27]	4.85
CCCCCCC(=C\c1ccccc1)/C=C(\C)C(=O)N(C)C [Compound 28, (E)-4-((E)-benzylidene)-N,N,2-trimethyldec-2-enamide]	5.70
CCCCCCC(=C\c1ccccc1)/C=C(\C)C(C)=O [Compound 29, 5-benzylidene-3-methylundec-3-en-2-one]	6.00
CCCCCCC(/C=C/C(C)=O)=C\c1ccccc1 [Compound 30, (E)-5-((E)-benzylidene)undec-3-en-2-one]	5.22
COc1cccc(/C=C/C=C(\C)CO)c1 [Compound 31, (2E,4E)-5-(3-methoxyphenyl)-2-methylpenta-2,4-dien-1-ol]	4.20
CCCc1ccccc1/C=C/C=C/CO [Compound 32, (2E,4E)-5-(2-propylphenyl)penta-2,4-dien-1-ol]	3.90
CCCCCCC(/C=C/CO)=C\c1ccc(F)cc1 [Compound 33, (E)-4-((E)-4-fluorobenzylidene)dec-2-en-1-ol]	4.74
CCCCCC(/C=C(\C)CO)=C\c1ccccc1 [Compound 34]	4.72
CCCC(/C=C(\C)CO)=C\c1ccccc1 [Compound 35]	4.28
COc1cccc(/C=C/C=C(\C)C=O)c1 [Compound 36, (2E,4E)-5-(3-methoxyphenyl)-2-methylpenta-2,4-dienal]	4.10
CCCc1ccccc1/C=C/C=C/C=O [Compound 37, (2E,4E)-5-(2-propylphenyl)penta-2,4-dienal]	3.90
CCCCCCC(/C=C/C=O)=C\c1ccccc1 [Compound 39, (E)-4-((E)-benzylidene)dec-2-enal]	5.22
CCCCCC(/C=C(\C)C=O)=C\c1ccccc1 [Compound 40]	4.54
CCCC(/C=C(\C)C=O)=C\c1ccccc1 [Compound 41]	3.73
CCCCCCC(/C=C(\C)COC)=C\c1ccccc1 [Compound 42, ((E)-2-((E)-3-methoxy-2-methylprop-1-en-1-yl)oct-1-en-1-yl)benzene]	4.60
CCCCCCC(/C=C(\C)COCC)=C\c1ccccc1 [Compound 43, ((E)-2-((E)-3-ethoxy-2-methylprop-1-en-1-yl)oct-1-en-1-yl)benzene]	3.90
CCCCCCC(/C=C(\C)COCC)=C\c1ccc(F)cc1 [Compound 44, 1-((E)-2-((E)-3-ethoxy-2-methylprop-1-en-1-yl)oct-1-en-1-yl)-4-fluorobenzene]	4.66
CCCCCC(/C=C/C(=O)OCC)=C\c1ccc(F)cc1 [Compound 45, ethyl (E)-4-((E)-4-fluorobenzylidene)non-2-enoate]	5.40
CCCCCC(/C=C/C(=O)OC)=C\c1ccc(F)cc1 [Compound 46, methyl (2E,4E)-4-(4-fluorobenzylidene)-2-nonenoate]	4.60
(E)-4-((E)-4-fluorobenzylidene)dec-2-enal [Compound 38]	4.60
